The values that follow come from US9597295B2, “Diene compounds for use in human epidermal cell repair, and pharmaceutical and cosmetic compositions containing them” (GIULIANI S.P.A., priority 2009, dated 2017).

Data set [1] has as its system reconstructed human epidermis (RHE). Briefly: H&E histology of reconstructed human epidermis. It is filed as cell-based. Particulars: single acute administration at 0.1%. From the text:
(§1) The RHE (SkinEthic®) 0.5 cm^2, which reproduces the morphology of the epidermis, was accurately characterised: a fully-differentiated epidermis develops after 17 days of airlift culture of NHK (normal human keratinocytes) from skin biopsies in a given medium (MCDB153).
At the end of the study period, the tissues were washed with PBC, fixed in 10% buffered formalin and prepared for histological examination.
The tissue was embedded in paraffin blocks and cut into sections (3-5μ thick) on a microtome. The sections were then transferred to slides, deparaffinised and rehydrated, then stained with haematoxylin and eosin (H&E).
The samples for histology were analysed under the microscope. The overall morphology and any changes by comparison with the negative controls were assessed and recorded in the laboratory report.
The samples for histology were analysed under the Leica microscope DM2500 and recorded using the Leica Application Suite (LAS) software.

The next data set relates to IL-1α. The data set is described as follows: IL-1α quantification in the growth medium using ELISA. Format: cell-based, human. Particulars: RHE growth medium, 0.1% single dose, after 24 h. How it is done: The release of IL-1α was assayed in 200 μl of the growth medium underneath the RHE at preset sampling times using a highly-sensitive, specific ELISA (enzyme-linked immunosorbent assay) kit according to the manufacturer's instructions. The end-product was quantified at 450 nm.
The underlying growth medium for each RHE was collected immediately after the recovery time and stored at −20° C. in plastic cryo-vials.
Before the test, the medium was conditioned at room temperature. The results were expressed as pg/ml of IL-1α. Concentrations between 3.9 and 250 pg/ml were considered within the range of sensitivity.

The test system of another data set is cK-19 (KRT19) mRNA. Briefly: cK-19 mRNA expression by real-time PCR in reconstructed human epidermis. It is filed as cell-based. To be noted: RHE, single 20 μl dose at 0.1%. As to the method: as §1
(§2) On arrival, the RHE (day 11) were removed from the agarose nutrient solution under a flow of sterile air. The inserts were rapidly plated in six-well plates previously filled with 1 ml of growth medium each at 37° C., […], and 90% relative humidity, taking care to avoid any formation of bubbles underneath the insert.
The substances tested were solubilised in DMSO (Sigma) to obtain a final concentration of 0.2%.
This stock solution was diluted in PBS to achieve the 0.1% of active principle.
The solution was applied with care to each tissue using a micro-pipette in a single dose of 20 μl.
The method is based on the capacity of the glass fibres to bind the nucleic acid in chaotropic concentrated saline solutions. The samples are disrupted in a highly-concentrated solution of guanidinium salts that lyse the cells and inactivate the endogenous RNase. The lysate is diluted with ethanol to make the […] competent for binding with the glass fibre of the filter in the filter cartridge. The RNA binds to the filter, while the other cell components slide freely through the filter. The filter is then washed three times and the RNA is eluted in a solution with a very low ionic strength.
The rationale in this method is based on the use of random primers to begin cDNA synthesis that ensure an efficient synthesis of the first helix of all the RNA molecules present.
(§3) The “Applied Biosystems 7500 real-time PCR” instrument uses PCR chemistry based on fluorescence, the TaqMan assay.
This technique uses Taqman probes to identify the fluorescent signal: it is highly sensitive and consists in amplifying and quantifying a specific nucleic acid sequence. The PCR product is detected in real time. The DNA, cDNA or RNA are quantified by determining the cycle in which the PCR product can be identified first, and therefore not when the reaction has reached saturation. The product is quantified by detecting the fluorescence measured in each cycle: the entity of the signal is directly proportional to the quantity of product amplified.
The relative quantification is measured from the difference between the expression of the nucleic acid sequence of a sample being tested and the same sequence in the calibration sample.
Each biological sample was processed in triplicate. The Taqman gene expression assay and cDNA (25 ng) were added to the “2× TaqMan Universal PCR Master Mix”, making up to a total volume of 25 μl.
The tissues were homogenised in 300 μl of lysis buffer for […] extraction.
On day 1, the RHE were 12 days old. The substances being tested (in duplicate) and the controls were applied in a single dose (20 μl). The RHE were then incubated without further treatment for 24 hours.
(In qPCR the cycle at which signal appears reflects the starting amount.)

The next data set has as its system cK-14 (KRT 14) mRNA. The data set is described as follows: cK-14 mRNA expression by real-time PCR in reconstructed human epidermis. Format: cell-based. To be noted: RHE, 0.1%, during the whole study, by comparison with the controls. As to the method: as §1, §2
The substances tested were solubilised in DMSO (Sigma) to obtain a final concentration of 0.2%. […]
as §3
This technique uses Taqman probes to identify the fluorescent signal: it is highly sensitive and consists in amplifying and quantifying a specific nucleic acid sequence. The PCR product is detected in real time. The DNA, cDNA or RNA are quantified by determining the cycle in which the PCR product can be identified first, and therefore not when the reaction has reached saturation. The product is quantified by detecting the fluorescence measured in each cycle: the entity of the signal is directly proportional to the quantity of product amplified. […]

Another data set relates to cK-10. The data set is described as follows: cK-10 immunohistochemical expression in the RHE (separate study). To be noted: day 17 of differentiation, versus untreated controls. It is filed as cell-based, human. From the text: Finally, in a separate study conducted using similar methods, the expression of cK-10 in the RHE was studied on days 15 and 17 of differentiation, recorded by its immunohistochemical expression. cK-10 is a marker of the terminal differentiation of the keratinocytes at granular and spinal level.

Where [2] appears, read: 24 hours of treatment, day 13, calibrated to DMSO controls.
The mark [3] stands for this setting: 48 hours of treatment, day 15, by comparison with the PBS control.
The mark [4] stands for this setting: 120 hours of treatment, day 17 (final differentiation), by comparison with the controls.

Molecules are shown by their SMILES.

On to `C/C=C/C=C/C=C/C(=O)OCC` [DPRT, 2E,4E,6E-Octa-2,4,6-trienoic acid ethyl ester], for which the “toxicity (histomorphological analysis, cK-16 expression, IL-1α release)” value in data set [1] is “no relevant signs of toxicity”. Moreover, in the data set on IL-1α, the “release of IL-1α” value was “no such release”. Moreover, the “cK-19 mRNA gene expression” value in the data set on cK-19 (KRT19) mRNA (setting [2]) is listed as “much diminished”; with cK-19 (KRT19) mRNA (setting [3]) it was “not diminished”; in the data set with cK-19 (KRT19) mRNA (setting [4]), “up-regulation”.
Regarding `C/C=C/C=C/C=C/CO` [PRT, 2E,4E,6E-Octatrien-1-ol], in data set [1], the “toxicity (histomorphological analysis, cK-16 expression, IL-1α release)” value was “toxicity similar for retinol and 2,4,6-octatrien-1-ol”. In the data set on IL-1α, the “release of IL-1α” value was “no such release”.
On to `CC1=C(/C=C/C(C)=C/C=C/C(C)=C/CO)C(C)(C)CCC1` [RET, Retinol], for which the “toxicity (histomorphological analysis, cK-16 expression, IL-1α release)” value in data set [1] is “toxicity similar for retinol and 2,4,6-octatrien-1-ol”. The “release of IL-1α” value in the data set on IL-1α is “early but very low release”. Also, in the data set on cK-14 (KRT 14) mRNA, the “cK-14 expression (marker of mitotic activity)” value is recorded as “did not differ significantly”. The “cK-19 mRNA gene expression” value in the data set with cK-19 (KRT19) mRNA (setting [2]) was “regulation level resembling the values of the calibrator”; with cK-19 (KRT19) mRNA (setting [3]) it was “diminished”; in the data set on cK-19 (KRT19) mRNA (setting [4]), “up-regulation”. For the same compound, the cK-10 immunohistochemical expression result in the data set on cK-10 was “negative”.
